What was measured:
[1] = target: T1, aggregated alpha-synuclein (Homo sapiens, UniProt P37840); assay: Modified saturation binding assay, protocol 2b, alpha-synuclein fibrils; settings: saturation assay protocol 2b, sonicated fibrils 15 nM/well
T1 construct: made in house; host or cells: E. coli
Procedure: Alpha-synuclein and tau46 were purified from E. coli according to established protocols (Nuscher B, et al., J. Biol. Chem., 2004; 279(21):21966-75), Aβ1-42 was obtained from rPeptide, Watkinsville, Ga., USA. Fibrils were prepared by aggregation of recombinant protein via constant agitation. In detail, 70 μM of alpha-synuclein mixed with 100 mM NaCl in 50 mM Tris, pH 7.0+0.02% NaN3 were incubated at 1,400 rpm, 37° C. for 96 h. 10 μM of tau46 were incubated with 0.03 mg/ml heparin in 50 mM Tris, pH=7.0 at 1,000 rpm, 37° C. for 72 h. […]
For saturation binding assays, a fixed concentration of sonicated human recombinant αSYN (15 nM/well) or tau46 (250 nM/well) or Aβ1-42 (1 μM/well) fibrils diluted in phosphate buffered saline (PBS) were incubated in low binding plates (96 well micro test plate, Ratiolab GmbH, Dreieich, Germany) with [H]-compound 1 or [PH]-compound 2 at increasing concentrations (from 0.05 nM to 12 nM/24 nM) in 30 mM Tris HCl, 10% ethanol, 0.05% Tween20, pH 7.4 (hereafter referred to as incubation buffer) in a total volume of 200 μL/well. Non-specific binding of the radiotracer was determined by coincubation with 400 nM non-labeled compound 1 or compound 2. The optimal fibril concentrations were determined using a concentration determination assay. […]

[2] = target: T2, alpha-synuclein (sonicated fibrils) (Homo sapiens, UniProt P37840); assay: Modified competition binding assay, protocol 3b, reference ligand [3H]-compound 1; settings: reference ligand [3H]-compound 1 (1 nM)
T2 construct: made in house; host or cells: E. coli
Procedure: Fibrils were prepared by aggregation of recombinant protein via constant agitation. In detail, 70 μM of alpha-synuclein mixed with 100 mM NaCl in 50 mM Tris, pH 7.0+0.02% NaN3 were incubated at 1,400 rpm, 37° C. for 96 h. 10 μM of tau46 were incubated with 0.03 mg/ml heparin in 50 mM Tris, pH=7.0 at 1,000 rpm, 37° C. for 72 h.
Plates were incubated for 4.5 hours at RT covered by removable sealing tape (PerkinElmer, Waltham, Mass., USA).
Filtration and readout were performed as described for saturation binding assays.
The fibril competition assay provides Ki values. […] This assay is suitable for a screening of non-radioactive ligands.

[3] = target: T2, alpha-synuclein (sonicated fibrils); assay: Modified competition binding assay, protocol 3b, reference ligand [3H]-compound 2; settings: Table 5, reference ligand [3H]-compound 2 (1 nM)
How it was run: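 Sonicated recombinant human αSYN fibrils (15 nM/well) incubated with 1 nM [3H]-compound 2 and serially diluted unlabeled competitor in 30 mM Tris-HCl, 10% ethanol, 0.05% Tween20, pH 7.4, 4.5 h at RT. Filtration readout; IC50 by non-linear regression, Ki calculated using KD 0.2 nM.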

[4] = In vivo biodistribution of [11C]-labeled compounds, small animal PET; settings: [11C]-labeled compound, intravenous tail vein, mice; for half-life: mouse, brain, read-out: Clearance half-life (brain)
Procedure: [^11C]-labeled compound 1 and compound 2, respectively, were injected intravenously in the tail vein of mice. Mice were then imaged in a small animal PET instrument. For both compounds, a good blood-brain-barrier penetration with SUV values >1.5 was observed.

Q: With `CN(C)c1ccc(-c2cc(-c3ccnc(Br)c3)[nH]n2)cc1` [Compound 1, 4-[3-(4-dimethylamino-phenyl)-1H-pyrazol-5-yl]-2-bromopyridine] as the molecule, how does the Kd [1] read?
A: 0.6 nM

Q: What about the Ki ([2]; Table 6 comparison series, read-out: Ki (nM), sonicated alpha-synuclein fibrils) of the same molecule?
A: 0.4 nM

Q: And the Ki [3]?
A: 0.1 nM

Q: What about the “Washout from the brain” value [4] of the same molecule?
A: rapid washout from the brain

Q: What about the half-life [4] of the same molecule?
A: 12 min

Q: Which Ki [3] does the source give for `Fc1cc(-c2cc(-c3ccc4c(c3)OCO4)n[nH]2)ccn1` [Compound 12, 4-[3-(1,3-benzodioxol-5-yl)-1H-pyrazol-5-yl]-2-fluoropyridine] here?
A: 3.4 nM

Q: Which results are given for `CNc1ccc(-c2cc(-c3ccnc(Br)c3)[nH]n2)cc1` [Compound 2, 4-[5-(2-bromopyridin-4-yl)-1H-pyrazol-3-yl]-N-methylaniline]?
A: Kd [1]: 0.2 nM; Ki ([2]; Table 4b, read-out: Ki (nM) alpha-synuclein (sonicated fibrils)): 0.3 nM; Washout from the brain [4]: rapid washout from the brain; half-life [4]: 9 min

Source: patent publication US20230067910A1, “NOVEL COMPOUNDS FOR THE DIAGNOSIS, TREATMENT AND PREVENTION OF DISEASES ASSOCIATED WITH THE AGGREGATION OF ALPHA-SYNUCLEIN” (MODAG GMBH, priority 2019, published 2023)
